The values that follow come from patent US20240041870A1, “METHODS OF TREATING SYSTEMIC LUPUS ERYTHEMATOSUS” (AbbVie Inc., priority 2022, published 2024).

The experiment deals with subjects with moderately to severely active SLE. Put plainly: Exposure-response analysis (logistic regression) of upadacitinib steady-state Cavg vs efficacy endpoints. Further details: species or system human. The procedure:
Quartile plots for the relationships between upadacitinib steady-state (SS) Cavg and efficacy responses at Week 24 are shown in FIG. 5A to 5C. Specifically, FIG. 5A is an exposure-response quartile plot for upadacitinib efficacy at week 24 for the efficacy endpoint of SLE Responder Index (SRI-4) and Steroid Dose ≤10 mg prednisone equivalent QD, FIG. 5B is an exposure-response quartile plot for upadacitinib efficacy at week 24 for the efficacy endpoint of BILAG-Based Combined Lupus Assessment (BICLA), and FIG. 5C is an exposure-response quartile plot for upadacitinib efficacy at week 24 for the efficacy endpoint of SLE Responder Index (SRI-4).
The highest upadacitinib steady-state (SS) Cavg quartile (which would be equivalent to 45 mg QD exposures) was consistently associated with the highest observed response across the three endpoints and was the primary driver for upadacitinib exposure-response trends. The exposure-response model-predicted median (90% prediction interval) percentage of subjects achieving SRI-4 and steroid dose ≤10 mg prednisone equivalent QD, BICLA, and SRI-4 at Week 24 is 50% (42% to 58%), 57% (50% to 65%), and 55% (47% to 62%), respectively, for upadacitinib 30 mg UPA QD compared to 38% (31% to 46%), 39% (32% to 46%), and 40% (32% to 47%), respectively, for placebo. A upadacitinib 45 mg QD dose is predicted to provide 6% to 8% greater responses compared to 30 mg QD.
Quartile plots for the relationships between upadacitinib Cavg and efficacy responses at Week 48 are shown in FIGS. 10A-10C (SRI-4 and steroid dose ≤10 mg prednisone equivalent, SRI-4, and BICLA, respectively). Based on logistic regression analysis, there is an exposure-response relationship (p <0.05) for upadacitinib with each of the Week 48 efficacy endpoints (SRI-4 and steroid dose (10 mg prednisone equivalent QD, BICLA, and SRI-4). […]

On to `CC[C@@H]1CN(C(=O)NCC(F)(F)F)C[C@@H]1c1cnc2cnc3[nH]ccc3n12` [Upadacitinib, (3S,4R)-3-ethyl-4-(3H-imidazo[1,2-a]pyrrolo[2,3-e]pyrazin-8-yl)-N-(2,2,2-trifluoroethyl)pyrrolidine-1-carboxamide], for which the “plateau for efficacy at the plasma exposures evaluated” value (exposures associated with 30 mg QD, Week 24) is listed as “not reached”. For the same molecule, the “relationship of upadacitinib plasma exposures with SRI-4 and steroid dose ≤10 mg prednisone equivalent, SRI-4, and BICLA at Week 24” value (logistic regression, p<0.05, Week 24) is “statistically significant relationship”. Besides, the “exposure-response relationship with SRI-4 and steroid dose ≤10 mg prednisone equivalent, SRI-4, and BICLA at Week 48” value (logistic regression, p<0.05, Week 48) is “clear exposure-response relationship”.
